# Laboratory results from PubChem BioAssay AID504824 (The Scripps Research Institute Molecular Screening Center, 2011).
# Active and inactive are the calls of the source.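 The calls were made as follows: active = compound reaching half of full procaspase-3 activation at 10 µM or lower; inactive = the rest.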
# Target: Caspase-3 (Homo sapiens) (UniProt P42574)
# Assay: activators of human procaspase-3 D3A mutant – biochemical, absorbance, PC-3 D3A mutant, powder samples, counter-screen for dual procaspase-3/7 activator project, late-stage follow-up (AID 504824)
# Conditions: recombinant PC-3 D3A, Ac-DEVD-pNA absorbance 405 nm
# Chain of Caspase-3 (Homo sapiens) (P42574 whole entry D9A/D28A/D175A): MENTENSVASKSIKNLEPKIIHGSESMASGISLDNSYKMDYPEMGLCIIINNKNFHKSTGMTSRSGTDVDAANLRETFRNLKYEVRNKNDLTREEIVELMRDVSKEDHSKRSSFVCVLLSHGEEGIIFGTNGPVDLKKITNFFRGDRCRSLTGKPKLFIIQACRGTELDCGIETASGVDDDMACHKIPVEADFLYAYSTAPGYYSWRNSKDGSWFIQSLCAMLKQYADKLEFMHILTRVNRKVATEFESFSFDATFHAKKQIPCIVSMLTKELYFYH
row,Compound,EC50
1,O=C(C1=NN(c2ccccc2)C2C(=O)N(c3ccccc3)C(=O)C12)c1ccccc1 (stereo not given),> 85.3 µM (inactive)
2,COc1ccccc1N1C(=O)C2C(C(=O)c3ccccc3)=NN(c3ccccc3)C2C1=O (stereo not given),> 85.3 µM (inactive)

# The remaining lines, values ahead:
row,EC50,Compound
1,3.62 µM,Cc1[nH]nc2c1C(c1c[nH]c3ccccc13)C(C#N)=C(N)O2 (stereo not given)
2,> 85.3 µM (inactive),O=C(Nc1ccc(Cc2ccncc2)cc1)C1CCC(N2C(=O)C3C4C=CC(C5CC45)C3C2=O)CC1 (stereo not given)
3,> 85.3 µM (inactive),COC(=O)C1=NN(c2ccc(Cl)cc2)C2C(=O)N(c3ccccc3OC)C(=O)C12 (stereo not given)
